Data set [1] has as its system forced swimming test with rats (duration of immobility). The data set is described as follows: Antidepressant activity: forced swimming test using rats. In kind it is in vivo, Wistar male rats. The following applies: for Effect on duration of immobility (in words): oral administration; for Suppression of duration of immobility: vs saline. The protocol:
(§1) As experimental animals, Wistar male rats and ddY male mice were used for the tests after they were housed for a week under every 12 hours' dark-light cycle at room temperature of 24° to 26° C.
That is, a rat (5 week-old) was placed into a glass cylinder having the inside diameter of 18 cm and the height of 40 cm which contained water (water temperature: 25° C.) up to its height of 15 cm. After 15 minutes, the rat was picked up followed by drying and then returned to his home cage. After 24 hours, the rat was again placed into the water in the same cylinder. The duration of immobility (the time rat kept motionless) was accumulatively measured with a stopwatch for five minutes (a five minutes' test). Each test compound was suspended in saline. The administration was carried out three times, at 24, 5 and 1 hour before the five minutes' test in case of an intraperitoneal administration or with only a single administration at 1 hour before the five minutes' test in case of an oral administration to examine the antidepressant effect.
The duration of immobility in Table 4 is the mean value for […] in each group. Suppression is expressed as a ratio in percentage of a reduction of the duration of immobility in the group administered with the test compound to that in the control group administered with saline alone.

In data set [2] the test system is experimental amnesia in mice induced by cycloheximide. The data set is described as follows: Anti-amnesic effect: passive avoidance task (step-through), cycloheximide-induced amnesia. In kind it is in vivo, ddY male mice. The following applies: for Step-through latency: mean of group; for responders at 3 mg/kg / responders at 1 mg/kg: Mus musculus, mice with latency > 100 seconds, read-out: Ratio of memory. How it is done:
as §1
The effect on experimental amnesia in mice induced by cycloheximide was evaluated.
The experiment was carried out using an experimental apparatus of passive avoidance task for mice (made by Ohara-ika-sangyo K. K.) comprising a box divided into the two compartments of dark and light. That is, the dark compartment [a box having a reverse trapezoid cross section (height: 8 cm, base line: 5 cm, oblique line: 9.5 cm) and having the length of 14 cm] was shield from a light with a black plastic case and was floored with stainless grids for giving an electrical shock so that an electricity might be turned on a determined time after interception of a photobeam placed in the dark compartment. The light compartment made of transparent plastic (a box of the same shape as that of the dark compartment having the length of 16 cm, lightened from a location spaced 25 cm above by a 60 W electric lamp) was provided adjacent to the dark compartment. Between the two compartments, there was provided a circular entrance having the diameter of 3 cm with a guillotine door which could be opened and closed. By using the above-mentioned dark-light box, the experiment was carried out according to the following procedure.
A mouse (5 week-old) previously conditioned in the dark-light box was put in the light compartment and the guillotine door was opened. Three seconds after the mouse moved into the dark compartment and interrupted the photobeam, 0.3 mA electrical shock was given to limbs for 3 seconds from the floor grid (aquisition trial). Just after the mouse rushed into the light compartment, the door was shut and the […] in the light compartment was picked out to return to his home cage. After 24 hours, the mouse was placed again in the light compartment and the period from the opening of the guillotine door to the time the mouse completely entered the dark compartment was recorded maximally 300 seconds as a step-through latency (retention trial).
The amnesia was induced by subcutaneous injection of cycloheximide (120 mg/kg) dissolved in saline 10 minutes before the aquisition trial. As a control, the same amount of saline alone was administered. […]
A ratio of number of mice showing the step-through latency of more than 100 seconds in the group was defined as a ratio of memory for convenience's sake.
The step-through latency in Table 2 was the mean value for each treated group.

The nature of data set [3]: Acute toxicity test, oral. In kind it is in vivo, ddY male mice. To be noted: mouse, in vivo, ddY mice, 2 weeks observation. The protocol:
With respect to the compounds 1 to 86 shown in Table 1 as test compounds, the acute toxicity was examined using ddY mice according to the following method.
In each group, six male ddY mice weighing 27 to 30 g were employed. The compounds 1 to 86 suspended in an aqueous solution of 0.5% sodium carboxymethylcellulose were administered orally in a volume of 0.1 ml/10 g body weight. […] The LD50 (mg/kg) values were estimated from the ratio of the number of dead mice to the number of mice used.

[4] abbreviates: p.o., 30 mg/kg, 1 hour before test.

The source of these data is US5270339A, “Phenoxybenzene derivative” (Kanagafuchi Kagaku Kogyo Kabushiki Kaisha, priority 1991, dated 1993).

Turning to `C#CCN(C)Cc1ccccc1` [Pargyline, pargyline, reference compound], the “Effect on duration of immobility (in words)” value in data set [1] was “prolongation of the duration of immobility”. The same molecule came in with a Duration of immobility in data set [1] (setting [4]) of 244 s. The “Suppression of duration of immobility” value in data set [1] (p.o., 30 mg/kg) was -19%.
On to `CN(C)CCCN1c2ccccc2CCc2ccccc21` [Imipramine, imipramine, reference compound], for which the Duration of immobility amounted to 79 s in data set [1] (i.p., 100 mg/kg/time, 24, 5 and 1 hour before test); 210 s in data set [1] (setting [4]). The “Suppression of duration of immobility” value in data set [1] (i.p., 100 mg/kg/time) was 61%; in data set [1] (p.o., 30 mg/kg), -2%. Moreover, in data set [1], the “Effect on duration of immobility (in words)” value is listed as “no effect”.
On to `O=C1NCCC1=Cc1ccccc1Oc1ccccc1` [Compound 3], for which, in data set [2] (3 mg/kg oral), the Step-through latency was found to be 173 s and the responders at 3 mg/kg came out at 75%. Moreover, in data set [3], the LD50 at 336 h was not below 500 mg/kg.
In the case of `CC(=O)N1CCC(=Cc2cccc(Oc3ccccc3)c2)C1=O` [Compound 41], in data set [2] (3 mg/kg oral), the Step-through latency turned out to be 80 s and the responders at 3 mg/kg was determined as 25%. In data set [3], the LD50 at 336 h was not below 500 mg/kg.
The like results for `O=C1NCCC1=Cc1ccc(Oc2ccccc2)c([N+](=O)[O-])c1` [Compound 7] were, in that order, 113 s, 50% and not below 500 mg/kg.
In data set [2] (3 mg/kg oral), `O=C1NCCC1=Cc1cccc(Oc2ccccc2)c1` [Compound 1] showed a Step-through latency of 198 s. Further, in data set [2] (3 mg/kg oral), the responders at 3 mg/kg was 72%. Moreover, the Duration of immobility was found to be 164 s in data set [1] (i.p., 1 mg/kg/time, 24, 5 and 1 hour before test); 101 s in data set [1] (i.p., 3 mg/kg/time, 24, 5 and 1 hour before test); 71 s in data set [1] (i.p., 10 mg/kg/time, 24, 5 and 1 hour before test); 54 s in data set [1] (i.p., 30 mg/kg/time, 24, 5 and 1 hour before test); 190 s in data set [1] (p.o., 0.3 mg/kg, 1 hour before test); 165 s in data set [1] (p.o., 1 mg/kg, 1 hour before test). In addition, the Duration of immobility is 137 s in data set [1] (p.o., 3 mg/kg, 1 hour before test); 76 s in data set [1] (p.o., 10 mg/kg, 1 hour before test); 34 s in data set [1] (setting [4]). Also, the “Suppression of duration of immobility” value in data set [1] (i.p., 1 mg/kg/time) is recorded as 20%; in data set [1] (i.p., 3 mg/kg/time) it was 50%; in data set [1] (i.p., 10 mg/kg/time), 65%; in data set [1] (i.p., 30 mg/kg/time), 74%; in data set [1] (p.o., 0.3 mg/kg), 7%; in data set [1] (p.o., 1 mg/kg), 20%. For the same molecule, the “Suppression of duration of immobility” value is 33% in data set [1] (p.o., 3 mg/kg); 63% in data set [1] (p.o., 10 mg/kg); 83% in data set [1] (p.o., 30 mg/kg). Moreover, in data set [3], the LD50 at 336 h is not below 500 mg/kg.
Take `CCN1CCC(=Cc2ccc(Oc3ccccc3)cc2)C1=O` [Compound 14]: in data set [2] (3 mg/kg oral), the Step-through latency came to 100 s and the responders at 3 mg/kg was found to be 25%. This molecule also gave an LD50 at 336 h in data set [3] not below 500 mg/kg.
For `CCC1C(=Cc2cccc(Oc3ccccc3)c2)CCN1C(C)=O` (centres unmarked) [Compound 80], in data set [2] (1 mg/kg oral), the Step-through latency came to 100 s and the responders at 1 mg/kg amounted to 50%. The same molecule returned an LD50 at 336 h in data set [3] not below 500 mg/kg.
The like results for `CCCCN1CCC(=Cc2cccc(Oc3ccccc3)c2)C1` [Compound 68] were, in that order, 179 s, 75% and not below 500 mg/kg.
For the molecule `CCOC1CC(=Cc2cccc(Oc3ccccc3)c2)C(=O)N1` (centres unmarked) [Compound 56], in data set [2] (3 mg/kg oral), the Step-through latency was 129 s and the responders at 3 mg/kg came to 63%. Moreover, the LD50 at 336 h in data set [3] was not below 500 mg/kg.
In the case of `OCCN1CCC(=Cc2cccc(Oc3ccccc3)c2)C1` [Compound 71], in data set [2] (1 mg/kg oral), the Step-through latency was 212 s and the responders at 1 mg/kg is 75%. In addition, in data set [3], the LD50 at 336 h was not below 500 mg/kg.
As to `O=C1C(=Cc2cccc(Oc3ccccc3)c2)CCN1Cc1ccccc1` [Compound 48], in data set [2] (3 mg/kg oral), the Step-through latency stood at 117 s and the responders at 3 mg/kg stood at 63%. The LD50 at 336 h in data set [3] is not below 500 mg/kg.
As for `CCN1CCC(Cc2cccc(Oc3ccccc3)c2)C1` (centres unmarked) [Compound 83], in data set [2] (1 mg/kg oral), the Step-through latency came out at 188 s and the responders at 1 mg/kg turned out to be 100%. Besides, in data set [3], the LD50 at 336 h was not below 500 mg/kg.
Regarding `CCCCN1CCC(=Cc2cccc(Oc3ccccc3)c2)C1=O` [Compound 12], in data set [2] (3 mg/kg oral), the Step-through latency is 152 s and the responders at 3 mg/kg turned out to be 63%. In addition, in data set [3], the LD50 at 336 h was not below 500 mg/kg.
For `O=C1NCC(c2ccccc2)C1=Cc1cccc(Oc2ccccc2)c1` (centres unmarked) [Compound 62], in data set [2] (3 mg/kg oral), the Step-through latency amounted to 170 s and the responders at 3 mg/kg is 50%. Besides, in data set [3], the LD50 at 336 h is not below 500 mg/kg.
Turning to `C=CCN1CCC(=Cc2cccc(Oc3ccccc3)c2)C1` [Compound 69], in data set [2] (1 mg/kg oral), the Step-through latency stood at 102 s and the responders at 1 mg/kg is 50%. Further, the LD50 at 336 h in data set [3] is not below 500 mg/kg.
In the same order, the values of `CN(C)N1CCC(=Cc2cccc(Oc3ccccc3)c2)C1=O` [Compound 38] are 100 s, 50% and not below 500 mg/kg.
`COc1ccc(C(=O)N2CCC(=Cc3cccc(Oc4ccccc4)c3)C2=O)cc1` [Compound 43]: in data set [2] (3 mg/kg oral), the Step-through latency came out at 179 s and the responders at 3 mg/kg stood at 100%. Further, in data set [3], the LD50 at 336 h was not below 500 mg/kg.
Regarding `O=C1C(=Cc2cccc(Oc3ccccc3)c2)CCN1C(=O)c1ccccc1` [Compound 42], in data set [2] (1 mg/kg oral), the Step-through latency was determined as 80 s and the responders at 1 mg/kg is 25%. Besides, in data set [3], the LD50 at 336 h was not below 500 mg/kg.
The like results for `C(=C1CCN(C2CC2)C1)c1cccc(Oc2ccccc2)c1` [Compound 85] were, in that order, 97 s, 25% and not below 500 mg/kg.
The like results for `CCN1CCC(=Cc2cccc(Oc3ccc(C)cc3)c2)C1` [Compound 19] were, in that order, 177 s, 75% and not below 500 mg/kg.
Consider `CN1CCC(=Cc2cccc(Oc3ccccc3)c2)C1=O` [Compound 9], for which, in data set [2] (3 mg/kg oral), the Step-through latency was 151 s and the responders at 3 mg/kg was found to be 75%. This molecule came in with an LD50 at 336 h in data set [3] not below 500 mg/kg.
Regarding `CC(=O)N1CCC(=Cc2cccc(Oc3ccccc3)c2)C1` [Compound 74], in data set [2] (1 mg/kg oral), the Step-through latency came out at 107 s and the responders at 1 mg/kg worked out at 50%. The LD50 at 336 h in data set [3] was not below 500 mg/kg.
Take `O=C1NCCC1=Cc1ccc(Oc2ccccc2)cc1` [Compound 2]: in data set [2] (3 mg/kg oral), the Step-through latency is 188 s and the responders at 3 mg/kg was found to be 75%. Also, in data set [3], the LD50 at 336 h is not below 500 mg/kg.
In the same order, the values of `COc1ccc(NC(=O)N2CCC(=Cc3cccc(Oc4ccccc4)c3)C2=O)cc1` [Compound 31] are 100 s, 50% and not below 500 mg/kg.
Regarding `CN(C)CCN1CCC(=Cc2cccc(Oc3ccccc3)c2)C1=O` [Compound 40], in data set [2] (1 mg/kg oral), the Step-through latency was 116 s and the responders at 1 mg/kg was 50%. The same molecule came in with an LD50 at 336 h in data set [3] not below 500 mg/kg.

Usually LD50 stands for the dose at which mortality reaches 50%. Read a low LD50 as greater toxicity.
